{"source": "patent US20230332232A1", "about": "“COMPOSITIONS AND METHODS FOR DIAGNOSING AND TREATING A DYSTONIA” (Duke University, priority 2020, published 2023)", "origin": "cited, not measured here", "key": {"[1]": {"test_system": "DYT1 patient-derived fibroblasts", "conditions": "cited from earlier work"}, "[2]": {"test_system": "ΔE Torsin1a", "conditions": "ΔE Torsin1a abnormal punctate pattern; cited from earlier work"}}}
{"smiles": "O=C(O)CCCc1ccccc1", "note": "[PBA, phenylbutyric acid]", "values": [{"measurement": "indicators of UPR activation", "setting": "[1]", "result": "reduces indicators of UPR activation"}, {"measurement": "punctate pathology", "setting": "[2]", "result": "significantly reduced punctate pathology"}]}
